Data reported in patent publication US20220305012A1, “L[…] TREATING SLEEP ISSUES” (EISAI R&D MANAGEMENT CO., LTD., priority 2019, published 2022).

Columns and labels:
[1] = Example 2: plasma concentrations of lemborexant and metabolites; format: in vivo, human
Procedure: Within 5 minutes of the subject's mean habitual bedtime, study drug was administered and an overnight polysomnogram recording was initiated. At completion of the recording the following morning (Day 2), postural stability and cognitive performance were assessed. On the Day 2 evening, subjects returned to the clinic and a blood sample was collected before administering study drug, and then study drug was administered within 5 minutes of the subject's mean habitual bedtime. Again, a polysomnogram recording was initiated. The next morning (Day 3), postural stability and cognitive performance were assessed. A blood sample was also collected.
On the evening of Day 30, subjects returned to the clinic. A pre-dose blood sample was collected and study drug was again administered within 5 minutes of the subject's mean habitual bedtime. A polysomnogram recording was initiated. The following morning (Day 31), postural stability and cognitive performance were assessed and a blood sample was obtained. The ISI, FSS, EQ-5D-3L and PGI-Insomnia were administered. Blood and urine samples were collected for routine safety assessment. An electrocardiogram was performed, and vital signs and weight were assessed. The eC-SSRS was then administered to the subject. At 1.5 hours after waketime, subjects rated their morning sleepiness level.

[2] = tested on: Subjects Having Insomnia Disorder; assay: Example 1: subjective total sleep time (sTST), Sleep Diary; format: in vivo, human
From the text: As used herein, the term “subjective total sleep time”, abbreviated as “sTST”, means the derived minutes of sleep from sleep onset until the time the subject stopped trying to sleep for the night. In some embodiments, sTST is derived from data entered in a subject's Sleep Diary.
In some embodiments, sleep diaries were used to assess sleep parameters reported by subjects (i.e., subjective assessments) including subjective sleep onset latency (sSOL), subjective sleep efficiency (sSE), subjective WASO (sWASO), and subjective total sleep time (sTST). Subjects were instructed to complete the Sleep Diary developed based on the consensus Sleep Diary as described in Carney et al., “The consensus sleep diary: standardizing prospective sleep self-monitoring,” Sleep 2012; 35(2):287-302. In some embodiments, the Sleep Diary was used to assess the subject's global perception of quality of sleep on the previous night with the following question: “How would you rate the quality of your sleep last night?” Subjects rated the quality of their sleep on a scale from 1 to 9, with 1 being extremely poor and 9 being extremely good. In some embodiments, the Sleep Diary was used to assess subjective ratings of morning sleepiness with the following question: “How alert/sleepy do you feel this morning?” Subjects rated their sleepiness/alertness level on a Likert scale from 1 to 9, with 1 being extremely sleepy and 9 being extremely alert.
sTST—subjective total sleep time: derived minutes of sleep from sleep onset until the time the subject stopped trying to sleep for the night.
Subjects were randomized in a double-blind manner and received either placebo, 5 mg of lemborexant, or 10 mg of lemborexant (approximately 1:1:1 randomization). All subjects underwent routine safety monitoring through the study, including assessments of treatment-emergent adverse events, 12-lead electrocardiograms, vital signs, weight, and clinical hematology and blood chemistry labs. Suicidality was assessed using the eC-SSRS.
Treatment period 1 began with the first dose of randomized study medication (placebo, 5 mg of lemborexant, or 10 mg of lemborexant). Subjects completed sleep diaries daily in the morning, within one hour of waketime. The subjects were assessed by a clinician one month, two months, three months, and six months after initiation of Treatment period 1. The following assessments were conducted:
In addition to the aforementioned study endpoints, the study included several additional secondary endpoints: • Mean change from study baseline of subjective sleep onset latency, subjective sleep efficiency, subjective wake after sleep onset, and subjective total sleep time at the beginning of treatment (mean of the 7 nights after the first dose in Period 1), at Month 1 and at Month 3. • Mean change from study baseline of subjective total sleep time at Month 6. • Change from study baseline in daytime functioning, assessed as the total score from the 4 items on daytime functioning, on the Insomnia Severity Index, at Months 1, 3, and 6.

[3] = Lemborexant 5 mg dose, Day 2 Post-Dose
[4] = Lemborexant 5 mg dose, Day 2 Pre-Dose
[5] = Lemborexant 5 mg dose, Day 29 Post-Dose
[6] = Lemborexant 5 mg dose, Day 29 Pre-Dose
[7] = Lemborexant 10 mg dose, Day 2 Post-Dose
[8] = Lemborexant 10 mg dose, Day 2 Pre-Dose
[9] = Lemborexant 10 mg dose, Day 29 Post-Dose
[10] = Lemborexant 10 mg dose, Day 29 Pre-Dose

Cc1ncc(OC[C@@]2(c3cccc(F)c3)C[C@H]2C(=O)Nc2ccc(F)cn2)c(C)n1 [Lemborexant, (1R,2S)-2-(((2,4-dimethylpyrimidin-5-yl)oxy)methyl)-2-(3-fluorophenyl)-N-(5-fluoropyridin-2-yl)cyclopropanecarboxamide]
Plasma Concentrations, BLQ (<0.0500 ng/mL), n (%) [1, 3]: 6 (2.3) n (%) | Plasma Concentrations, Mean (SD) [1, 3]: 5.3 (2.55) ng/mL | Plasma Concentrations, Median [1, 3]: 5.0 ng/mL | Plasma Concentrations, BLQ (<0.0500 ng/mL), n (%) [1, 4]: 10 (3.9) n (%) | Plasma Concentrations, Mean (SD) [1, 4]: 2.1 (1.48) ng/mL | Plasma Concentrations, Median [1, 4]: 1.8 ng/mL | Plasma Concentrations, BLQ (<0.0500 ng/mL), n (%) [1, 5]: 6 (2.4) n (%) | Plasma Concentrations, Mean (SD) [1, 5]: 10.7 (6.66) ng/mL | Plasma Concentrations, Median [1, 5]: 9.1 ng/mL | Plasma Concentrations, BLQ (<0.0500 ng/mL), n (%) [1, 6]: 8 (3.1) n (%) | Plasma Concentrations, Mean (SD) [1, 6]: 7.3 (5.60) ng/mL | Plasma Concentrations, Median [1, 6]: 6.1 ng/mL | Plasma Concentrations, BLQ (<0.0500 ng/mL), n (%) [1, 7]: 5 n (%) | Plasma Concentrations, Mean (SD) [1, 7]: 11.5 ng/mL | Plasma Concentrations, Median [1, 7]: 10.4 ng/mL | Plasma Concentrations, BLQ (<0.0500 ng/mL), n (%) [1, 8]: 15 n (%) | Plasma Concentrations, Mean (SD) [1, 8]: 4.4 ng/mL | Plasma Concentrations, Median [1, 8]: 3.7 ng/mL | Plasma Concentrations, BLQ (<0.0500 ng/mL), n (%) [1, 9]: 6 n (%) | Plasma Concentrations, Mean (SD) [1, 9]: 21.1 ng/mL | Plasma Concentrations, Median [1, 9]: 19.6 ng/mL | Plasma Concentrations, BLQ (<0.0500 ng/mL), n (%) [1, 10]: 6 n (%) | Plasma Concentrations, Mean (SD) [1, 10]: 15.1 ng/mL | Plasma Concentrations, Median [1, 10]: 13.7 ng/mL | subjective total sleep time compared with placebo ([2]; 5 mg and 10 mg, at the equivalent timepoint (Table 5)): greater increase in subjective total sleep time than subjects treated with placebo | sTST, Mean ([2]; 5 mg, First 7 Nights): 350.80 min | sTST, Median ([2]; 5 mg, First 7 Nights): 366.0 min | sTST, Mean ([2]; 5 mg, Month 1): 357.14 min | sTST, Median ([2]; 5 mg, Month 1): 374.64 min | sTST, Mean ([2]; 5 mg, Month 3): 386.42 min | sTST, Median ([2]; 5 mg, Month 3): 397.86 min | sTST, Mean ([2]; 5 mg, Month 6): 392.08 min | sTST, Median ([2]; 5 mg, Month 6): 403.43 min | sTST, Mean ([2]; 5 mg, Study Baseline): 315.52 min | sTST, Median ([2]; 5 mg, Study Baseline): 332.14 min | sTST Change from Study Baseline, Mean ([2]; 5 mg, after 1 Month): 39.32 min | sTST Change from Study Baseline, Median ([2]; 5 mg, after 1 Month): 36.33 min | sTST Change from Study Baseline, Mean ([2]; 5 mg, after 3 Months): 65.82 min | sTST Change from Study Baseline, Median ([2]; 5 mg, after 3 Months): 60.71 min | sTST Change from Study Baseline, Mean ([2]; 5 mg, after 6 Months): 76.21 min | sTST Change from Study Baseline, Median ([2]; 5 mg, after 6 Months): 70.71 min | sTST Change from Study Baseline, Mean ([2]; 5 mg, after 7 Nights): 34.29 min | sTST Change from Study Baseline, Median ([2]; 5 mg, after 7 Nights): 30.71 min | sTST LSM treatment difference: Lemborexant/Placebo ([2]; 5 mg, change from Study Baseline after 1 Month): 11.760 min | sTST LSM treatment difference: Lemborexant/Placebo ([2]; 5 mg, change from Study Baseline after 3 Months): 17.374 min | sTST LSM treatment difference: Lemborexant/Placebo ([2]; 5 mg, change from Study Baseline after 6 Months): 18.555 min | sTST LSM treatment difference: Lemborexant/Placebo ([2]; 5 mg, change from Study Baseline after 7 Nights): 22.034 min | sTST, Mean ([2]; 10 mg, First 7 Nights): 351.43 min | sTST, Median ([2]; 10 mg, First 7 Nights): 365.11 min | sTST, Mean ([2]; 10 mg, Month 1): 355.96 min | sTST, Median ([2]; 10 mg, Month 1): 369.23 min | sTST, Mean ([2]; 10 mg, Month 3): 374.99 min | sTST, Median ([2]; 10 mg, Month 3): 391.43 min | sTST, Mean ([2]; 10 mg, Month 6): 379.25 min | sTST, Median ([2]; 10 mg, Month 6): 398.57 min | sTST, Mean ([2]; 10 mg, Study Baseline): 306.89 min | sTST, Median ([2]; 10 mg, Study Baseline): 315.33 min | sTST Change from Study Baseline, Mean ([2]; 10 mg, after 1 Month): 53.22 min | sTST Change from Study Baseline, Median ([2]; 10 mg, after 1 Month): 47.77 min | sTST Change from Study Baseline, Mean ([2]; 10 mg, after 3 Months): 70.95 min | sTST Change from Study Baseline, Median ([2]; 10 mg, after 3 Months): 64.52 min | sTST Change from Study Baseline, Mean ([2]; 10 mg, after 6 Months): 78.32 min | sTST Change from Study Baseline, Median ([2]; 10 mg, after 6 Months): 72.93 min | sTST Change from Study Baseline, Mean ([2]; 10 mg, after 7 Nights): 46.01 min | sTST Change from Study Baseline, Median ([2]; 10 mg, after 7 Nights): 42.31 min | sTST LSM treatment difference: Lemborexant/Placebo ([2]; 10 mg, change from Study Baseline after 1 Month): 22.131 min | sTST LSM treatment difference: Lemborexant/Placebo ([2]; 10 mg, change from Study Baseline after 3 Months): 21.686 min | sTST LSM treatment difference: Lemborexant/Placebo ([2]; 10 mg, change from Study Baseline after 6 Months): 22.686 min | sTST LSM treatment difference: Lemborexant/Placebo ([2]; 10 mg, change from Study Baseline after 7 Nights): 31.796 min
